Test: Time activity analysis of organ activity (biodistribution, therapy study and SPECT/CT data pooled)
Assay type: in vivo, NOD/SCID mice
Protocol: For biodistribution, animals imaged at 4 h p.i. were killed 24 h p.i., while the ones scanned 24 h p.i. were killed 5 days p.i.. Subsequently, organs were excised, weighed, and assayed for radioactivity in a gamma counter. Mean tumour and organ uptake was determined from decay-corrected tissue radioactivity normalized to injected dose and tissue sample weight (%ID/g tissue wet weight).
All statistical analyses were performed using the Graph-Pad Prism software (Version 9.1.1). Biodistribution data is expressed as mean ± standard deviation. Kaplan–Meier Survival curve was analysed using survival analysis (Log rank Mantel-Cox test). The data points of the normalized tumour volume as a function of the time of the groups (Control, ^125I-PARPi, Control—excluded ulcers, ^125I-PARPi—excluded ulcers) were subjected to nonlinear regression analysis using the exponential growth formula Y = Y0*exp(k*x) (Malthusian). Accordingly, the doubling time is equal to ln(2)/k. […] During regression analysis, the best-fit value k was compared between two datasets each using the extra sum-of-squares F test, testing the null hypothesis that k is the same for both datasets. Time activity analysis was performed using nonlinear exponential decay curve fitting and area under the curve was computed using the Graph-Pad Prism software. The area under the curve is expressed as total peak area ± standard error. For statistical analysis of fluorescent signals, unpaired t-test was used.
Auger emitter-based therapeutic effect was assessed upon application of [^125I]PARPi-01 in 4 doses (8.15 ± 2.96 MBq/dose) with 10 days between each dose in subcutaneous MDA-MB-231 models (Fig. 3A). The fractionated therapy was designed based on two recent publications. In the study by Riad et al., a good tumour response without severe toxicity in normal tissue after application of 30 MBq ^125I-labeled PARPi was shown. […] Furthermore we observed DNA damage upon low dose PARPi application in our in-vitro experiments in the MDA-MB-231 cell line. […] To avoid any handling bias in calliper measurements, only CT-image-based tumour growth was analysed. […] A significant delay in tumour growth was observed upon [^125I]PARPi-01 treatment showing doubling time of 14.2 d (95% CI: 12.6 d to 16.1 d) (Fig. 3B, Additional file 1: Fig. S3). Comparing the treatment group with the control (with and without exclusion of animals with ulcers) we could see a significant difference between the k values (P < 0.0001 and P = 0.0038, respectively) and thus also the doubling time. […] A significant portion of the mice in both the control group and the therapy group were sacrificed due to reaching humane endpoints not related to tumour size. 2 mice were sacrificed due to ascites and 10 mice were sacrificed due to ulcer formation on the tumour site. […] Considering only this selection of mice, median survival time was 35 and 38 for control and therapy mice, respectively. Since, as shown for ^177Lu labelled tracer, data (SUV, concentration) calculated based on SPECT images correlate with those obtained by gamma counting, liver, tumour, and muscle were excised for subsequent gamma counter measurements. To obtain the time activity curve and tracer retention time in each organ, the decay corrected activity (%ID/g) from the biodistribution study, therapy study and also organ activity calculated from SPECT/CT images at 4 h and 24 h p.i. were taken together and plotted over time for liver (Fig. 3D), tumour (Fig. 3E) and muscle (Fig. 3F). Tracer uptake in liver was at a peak of 3.84%ID/g at 4 h p.i. and dropped over time to 0.411%ID/g (8d p.i.). […] The peak uptake of muscle was only 0.186%ID/g at 4 h p.i. and decreased to 0.002%ID/g at 8 d p.i. The overall area under the curve (retention time) in tumour was 26.53 ± 2.35 h/g as opposed to a liver retention of 284 ± 45.02 h/g, whereas the retention time of muscle was only 5.918 ± 0.98 h/g.

[1] = total peak area ± standard error

O=C(c1ccc([125I])cc1)N1CCN(C(=O)c2cc(Cc3n[nH]c(=O)c4ccccc34)ccc2F)CC1 [[^125I]PARPi-01]
tracer accumulation in tumour (4 h p.i.): 0.7219 %ID/g | tracer uptake in liver (4 h p.i. (peak)): 3.84 %ID/g | uptake of muscle (4 h p.i. (peak)): 0.186 %ID/g | tracer accumulation in tumour (24 h): 0.2 % ID/g | tracer accumulation in tumour (8 days): 0.02% | tracer uptake in liver (8 d p.i.): 0.411 %ID/g | uptake of muscle (8 d p.i.): 0.002 %ID/g | area under the curve (retention time) in liver [1]: 284 ± 45.02 h/g | area under the curve (retention time) in muscle [1]: 5.918 ± 0.98 h/g | area under the curve (retention time) in tumour [1]: 26.53 ± 2.35 h/g

Reference: paper PMC9474773, “PARP targeted Auger emitter therapy with [^125I]PARPi-01 for triple-negative breast cancer” (EJNMMI Research, 2022)
